“And” between values parts separate entries of the source, which are not always exact repeats. Identical values can stand only once.
Tested on: DLD1-OMP25HA cells
Experiment: LC-MS metabolomic profiling, whole cell samples
Type: cell-based, human
Conditions: DLD1-OMP25HA sgCtrl + Piericidin 5 μM 2 hours, rep01-rep03
Procedure: Rapid immunopurification of mitochondria was performed following the published methodology (4). In brief, cells with control or NADK2 knockout were engineered to express the HA-tagged OMP25 protein (Addgene, 83356); or in the case of FIG. 5E, parental DLD1 cells were engineered to express the HA-tagged OMP25 protein or the Myc-tagged OMP25 protein (Addgene, 83355), 30 million cells were washed and dounce homogenized in KPBS (136 mM KCl and 10 mM KH2PO4, pH 7.25). The homogenate was then cleared by centrifugation and the supernatant was applied to anti-HA beads (Thermo Fisher, 88837) and incubated with rotation for 3.5 min. The resultant beads were washed with KPBS and were eluted for different downstream analyses: Triton X-100 lysis buffer (50 mM Tris-HCl, pH 7.4, 150 mM NaCl, 1 mM EDTA, 1% (vol/vol) Triton X-100, and protease inhibitors) was used to elute mitochondria for Western blot analysis; 80:20 methanol:water containing 1.5 μM ^13C^15N labeled amino acids (Cambridge Isotope Laboratories, MSK-A2-1.2) was used to elute mitochondria for liquid chromatography-mass spectrometry (LC-MS) analysis; 80:20 methanol:water was used to elute mitochondria for NAD(H) and NADP(H) measurements; glutathione lysis buffer (see below) was used to elute mitochondria for GSH measurements.
For negative ionization mode liquid chromatography separation was achieved on an iHILIC-(P) Classic column (100 mm×2.1 mm, 5 μm particle size, HILICON). Mobile phase A was 10 mM ammonium bicarbonate in 10:90 acetonitrile:water with 5 μM medronic acid, pH 9.4 and mobile phase B was 10 mM ammonium bicarbonate in 90:10 acetonitrile:water with 5 μM medronic acid, pH 9.4). The gradient was 0 min, 95% B; 15 min, 50% B; 18 min, 50% B; 19 min, 95% B; 19.10 min, 95% B; 25.5 min, 95% B; 2 mins posttime. Other LC parameters were: flow rate: 200 μL/min; column temperature: 40° C., and injection volume was 2 μL. MS parameters were: gas temp: 300° C.; gas flow: 10 L/min; nebulizer pressure: 40 psig; sheath gas temp: 350° C.; sheath gas flow: 12 L/min; VCap: 3,000 V; fragmentor: 125 V. Data were acquired from m/z 50-1700 with active reference masses correction (m/z: 121.05087 and 922.00980 (positive mode) or m/z: 119.03632 and 980.01638 (negative mode). Peak identification and integration were done based on in-house exact mass and retention time library built from commercial standards. Data analysis and natural isotope abundance correction were performed using MassHunter Profinder software v10.0 (Agilent Technologies).
For metabolomic profiling of the Mito-IP samples, dried extracts were resuspended in 30 μL of 60:40 acetonitrile:water and an additional 7.5 μL of 100% methanol added to prevent phase separation. Samples were vortexed, incubated on ice for 20 min, and clarified by centrifugation at 20,000 g for 20 min at 4° C. LC-MS analysis was using the iHILIC-(P) Classic negative method described with 6545 Q-TOF mass spectrometer (Agilent Technologies). Whole cell extracts were analyzed in parallel and data analysis was performed using MassHunter Profinder v10.0 software (Agilent Technologies). Metabolite identifications reported were based on either (a) exact mass and retention times matched to authentic standards (denoted as RT in Tables 1A-1G) or (b) exact mass and MS2 spectra match using SIRIUS software (denoted as MS2 in Tables 1A-1G) (https://bio.informatik.uni-jena.de/software/sirius/). Metabolites were considered to be mitochondrial if the average peak area measured in anti-HA Mito-IPs from HA-tagged OMP25 cells was at least 1.5-fold more than in anti-HA Mito-IPs from the control cell expressing Myc-tagged OMP25 (scc Tables 1A-1G; FC>1.5 for [OMP25HA sgCtrl MitoIP vs. OMP25Myc MitoIP]).

C/C=C(\C)[C@H](O)[C@H](C)/C=C(C)/C=C/C/C(C)=C/Cc1nc(OC)c(OC)c(O)c1C [piericidin]
2-aminoadipate: 146679 and 129247 and 159230
2-hydroxyglutarate: 3675897 and 3670344 and 3586833
3-methyl-2-oxovalerate: 3696272 and 2980891 and 4249362
4-acetylbutyrate: 10363291 and 8533694 and 12130178
4-hydroxyproline: 522424 and 441928 and 551397
5-methylthioadenosine (MTA): 257749 and 400467 and 367942
5-oxoproline: 16393034 and 14068076 and 17132083
6-phosphogluconate: 65481 and 57701 and 58966
N6-(delta-isopentenyl)-adenine: 293077 and 229998 and 281738
N-acetyl-beta-alanine: 1022765 and 956905 and 1036571
N-acetylalanine: 238161 and 214277 and 230562
N-acetylaspartate (NAA): 12095956 and 11050203 and 12351863
N-acetylglucosamine 6-phosphate: 428986 and 380372 and 454385
N-acetylglutamate: 987898 and 1549149 and 871723
N-acetylglycine: 43846 and 40358 and 41154
N-acetylmethionine: 462515 and 426811 and 428397
N-acetylserine: 5896001 and 5058414 and 6358391
N-acetyltaurine: 1110210 and 1084752 and 1148548
N-acetylthreonine: 1380430 and 1226851 and 1295989
UDP-N-acetylglucosamine: 4639411 and 4238311 and 4998970
UDP-glucuronate: 1027925 and 858275 and 1243921
aconitate: 346582 and 453318 and 406006
adenine: 481304 and 768689 and 708555
adenosine 5′-diphosphate (ADP): 1129524 and 1189412 and 1083190
adenosine 5′-monophosphate (AMP): 646021 and 715531 and 648428
adenosine 5′-triphosphate (ATP): 2352445 and 2990040 and 2388618
alanine: 1663860 and 1344230 and 1765231
alanylhistidine: 22199 and 41823 and 30446
allantoin: 3703951 and 3225148 and 4031072
arginine: 1086834 and 998509 and 1348136
asparagine: 2068551 and 1580346 and 2240202
aspartate: 1717174 and 1947525 and 1819639
beta-glycerophosphoric acid: 850446 and 705915 and 880253
betaine: 161649 and 112014 and 159770
caproate: 114886 and 109032 and 115791
carbamoyl aspartate: 3763133 and 3469742 and 3815379
carnitine: 43283 and 41086 and 45131
citrate: 9028971 and 10970194 and 9594217
creatine: 549841 and 451406 and 565679
creatine phosphate: 394087 and 351223 and 410441
creatinine: 277361 and 240499 and 323168
cytidine 5′-triphosphate (CTP): 81066 and 75474 and 92586
dihydroxyacetone phosphate (DHAP): 1214605 and 1228567 and 1670800
dodecanoate: 303807 and 282352 and 360172
flavin adenine dinucleotide (FAD): 115513 and 108031 and 137050
folate: 99228 and 128177 and 134416
formylpyruvate: 1414077 and 902945 and 1059691
fructose 1,6-biphosphate: 1321982 and 1216851 and 1680580
fructose 6′-phosphate: 57127 and 49316 and 50145
fumarate: 357661 and 412548 and 377283
galactitol: 918739 and 708477 and 1199966
galactonic acid: 2240293 and 1677985 and 2390572
gamma-aminobutyrate (GABA): 3496195 and 3622488 and 3524195
glucosamine: 164826 and 119694 and 178113
glucose 6′-phosphate: 755029 and 621609 and 531377
glutamate: 126622339 and 129663305 and 129294077
glutamine: 58464656 and 69652329 and 62470821
glyceraldehyde 3-phosphate: 3045295 and 3098709 and 4229751
glycerophosphorylcholine (GPC): 210330 and 183098 and 225230
glycine: 146868 and 137614 and 144892
glycylaspartate: 205091 and 201360 and 226481
guanosine 5′-diphosphate (GDP): 69660 and 69853 and 38046
guanosine 5′-diphosphoglucose: 33192 and 34147 and 38993
guanosine 5′-monophosphate (GMP): 44633 and 51573 and 51777
guanosine 5′-triphosphate (GTP): 171526 and 214847 and 133658
histidine: 15027640 and 12343272 and 17476456
hydroxyphenyllactate: 1478092 and 1166698 and 1355443
inosine 5′-monophosphate (IMP): 22897 and 17939 and 22222
isoleucine: 4513788 and 3853543 and 5003963
lactate: 105521436 and 97172905 and 114401680
leucine: 7669096 and 6479727 and 8479119
lysine: 195097 and 149255 and 233140
malate: 12653099 and 10480180 and 12542946
methionine: 1041135 and 894784 and 1078995
methylthioribulose 1-phosphate: 21298086 and 18010540 and 22620900
nicotinamide: 39081 and 33023 and 41574
nicotinamide adenine dinucleotide (NAD+): 7875605 and 8688241 and 9053967
nicotinamide adenine dinucleotide phosphate (NADP+): 15380 and 19291 and 12614
nicotinamide adenine dinucleotide, reduced (NADH): 455322 and 465048 and 452884
oleate: 460639 and 248285 and 328228
palmitate: 20015231 and 20994808 and 24605738
pantothenate: 8937050 and 7961239 and 9124782
pentadecanoic acid: 302982 and 182808 and 229103
phenylacetate: 87967 and 87598 and 109383
phenylacetylglycine: 1781914 and 1641866 and 2033368
phenylalanine: 6841254 and 5972052 and 7346184
phosphocholine: 1734241 and 1590770 and 1746457
phosphoenolpyruvate (PEP): 217348 and 206448 and 247608
proline: 4018244 and 3303744 and 4136919
ribose 5′-phosphate: 30487 and 39389 and 44236
serine: 1972729 and 1697021 and 2115421
serinylaspartate: 80143 and 82279 and 87822
sn-glycero-3-phosphoethanolamine: 3947102 and 4703023 and 3861169
stearate: 10555350 and 11041062 and 14072247
succinate: 468012 and 552589 and 622074
taurine: 79062900 and 54111662 and 81152564
threonate: 4663562 and 3938483 and 4644285
threonine: 13508533 and 12463455 and 14159756
thymidine 5′-diphospho-alpha-D-glucose: 14725 and 13909 and 14870
thymine: 24681 and 21055 and 27340
tryptophan: 747292 and 595893 and 756562
tyrosine: 3847092 and 3576189 and 3918008
uridine 5′-diphosphate (UDP): 175584 and 155688 and 210038
uridine 5′-monophosphate (UMP): 631970 and 347896 and 460624
uridine 5′-triphosphate (UTP): 3135652 and 2793092 and 3584193
valine: 1041408 and 903609 and 1081229

Source: patent US20240209353A1, “NADK2 INHIBITION IN CANCER AND FIBROTIC DISORDERS” (Memorial Sloan-Kettering Cancer Center, priority 2021, published 2024)
